Measured values: patent US9044463B2, “FSH receptor antagonists” (Merck Sharp & Dohme B.V., priority 2011, dated 2015)

Biological target: T1, human FSH receptor (Homo sapiens, UniProt P23945)
T1 construct: expressed in transfected cells; host or cells: CHO (Chinese Hamster Ovary) cells, stably transfected; cotransfected with a CRE-luciferase reporter
T1 sequence (P23945 18-695): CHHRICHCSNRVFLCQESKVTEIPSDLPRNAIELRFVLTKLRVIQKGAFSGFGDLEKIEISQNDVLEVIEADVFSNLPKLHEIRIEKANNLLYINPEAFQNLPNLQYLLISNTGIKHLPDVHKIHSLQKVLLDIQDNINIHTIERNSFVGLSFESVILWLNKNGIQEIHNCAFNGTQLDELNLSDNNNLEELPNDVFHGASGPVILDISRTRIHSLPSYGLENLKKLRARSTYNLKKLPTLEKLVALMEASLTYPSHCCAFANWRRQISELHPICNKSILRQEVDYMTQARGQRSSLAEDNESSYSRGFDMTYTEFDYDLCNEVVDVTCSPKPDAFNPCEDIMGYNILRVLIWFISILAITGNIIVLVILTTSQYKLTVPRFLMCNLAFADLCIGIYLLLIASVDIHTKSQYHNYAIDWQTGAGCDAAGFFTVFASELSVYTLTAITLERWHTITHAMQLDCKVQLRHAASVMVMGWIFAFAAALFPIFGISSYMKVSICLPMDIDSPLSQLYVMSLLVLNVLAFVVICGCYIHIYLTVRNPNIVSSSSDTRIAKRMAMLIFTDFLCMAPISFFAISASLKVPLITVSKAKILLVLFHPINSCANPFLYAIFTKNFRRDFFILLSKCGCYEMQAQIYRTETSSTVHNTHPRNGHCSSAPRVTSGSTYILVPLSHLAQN
Experiment: Antagonistic activity at the human FSH receptor expressed in CHO cells (CRE-luciferase reporter)
Type: cell-based
Settings: CHO cells stably transfected with human FSH receptor and CRE-luciferase; with 49 μM recFSH; 4 hours incubation; read-out: IC50 (inhibition of recFSH-induced luciferase stimulation)
Procedure: Antagonistic Activity of Compounds at the Human FSH Receptor Expressed in CHO Cells
Antagonistic activity of the compounds at the human FSH receptor was determined in Chinese Hamster Ovary (CHO) cells stably transfected with the human FSH receptor and cotransfected to with a cAMP responsive element (CRE)/promoter directing the expression of a firefly luciferase reporter gene. Binding of the compounds to the Gs protein-coupled FSH receptor will result in an increase of cAMP, which in turn will induce an increased transactivation of the luciferase reporter. The cells (7,500 cells/well of a 384 well plate) were incubated in Dulbecco′ minimal essential F12 modified medium (Invitrogen), supplemented with 1 μg/ml bovine insulin, 5 μg/ml human apo-transferrin, 100 U/ml penicillin G and 100 μg/ml streptomycin with the test compounds (concentration between 0.316 nM and 10.0 μM) in duplicate together with […] recFSH (which, at this concentration in the absence of test compound, induces 80% of the maximal luciferase stimulation) in a humidified atmosphere (95%) at 5-7% CO2 and 37° C. The final concentration of DMSO was 1%. After 4 hours of incubation, plates were allowed to adjust to room temperature for 1 hour. Then, SteadyLite (PerkinElmer) solution was added to the wells and cells were allowed to lyse for at least 1 hour at room temperature. Subsequently, luciferase activity was measured in a luminescence counter. The signal is expressed as counts per second (cps). The IC50 (concentration of test compound causing half-maximal (50%) inhibition of the maximally attainable inhibition of the luciferase stimulation by the compound) and efficacy of the compounds were determined using the software program MathIQ (version 2.3, ID Business Solutions Limited).

IC50 [nM] | SMILES
< 100 | COc1cc2c(cc1-c1cnn(C)c1)COc1cc(-c3ccccc3F)c(C(=O)N[C@@H](CO)Cc3c[nH]c4ccccc34)cc1-2 [Example 51, 3-(2-fluorophenyl)-N—((R)-1-hydroxy-3-(1H-indol-3-yl)propan-2-yl)-9-methoxy-8-(1-methyl-1H-pyrazol-4-yl)-6H-benzo[c]chromene-2-carboxamide]
< 100 | COc1cc2c(cc1-c1ccncc1)COc1cc(-c3ccccc3F)c(C(=O)N[C@@H](CO)Cc3c[nH]c4ccccc34)cc1-2 [Example 52, 3-(2-fluorophenyl)-N—((R)-1-hydroxy-3-(1H-indol-3-yl)propan-2-yl)-9-methoxy-8-(pyridin-4)-6H-benzo[c]chromene-2-carboxamide]
< 100 | O=C(N[C@@H](CO)Cc1c[nH]c2ccccc12)c1cc2c(cc1-c1ccccc1F)OCc1cc(C(=O)N3CCOCC3)ccc1-2 [Example 53, 3-(2-fluorophenyl)-N—((R)-1-hydroxy-3-(1H-indol-3-yl)propan-2-yl)-8-(morpholine-4-carbonyl)-6H-benzo[c]chromene-2-carboxamide]
< 100 | CN(C)C(=O)c1ccc2c(c1)COc1cc(-c3ccccc3F)c(C(=O)N[C@@H](CO)Cc3c[nH]c4ccccc34)cc1-2 [Example 54, 3-(2-fluorophenyl)-N2-((R)-1-hydroxy-3-(1H-indol-3-yl)propan-2-yl)-N8,N8-dimethyl-6H-benzo[c]chromene-2,8-dicarboxamide]
< 100 | O=C(N[C@@H](CO)Cc1c[nH]c2ccccc12)c1cc2c(cc1-c1ccccc1F)OCc1cc3c(cc1-2)OCO3 [Example 55, 3-(2-fluorophenyl)-N—((R)-1-hydroxy-3-(1H-indol-3-yl)propan-2-yl)-8,9-(1′,3′-dioxolo)-6H-benzo[c]chromene-2-carboxamide]
< 100 | Cc1ccsc1-c1cc2c(cc1C(=O)N[C@@H](CO)Cc1c[nH]c3ccccc13)-c1cc3c(cc1CO2)OCO3 [Example 56, N—((R)-1-hydroxy-3-(1H-indol-3-yl)propan-2-yl)-8,9-(1′,3′-dioxolo)-3-(3-methylthiophen-2-yl)-6H-benzo[c]chromene-2-carboxamide]
100 to 1000 | CC(C)Oc1cc2oc(=O)c3cc4c(cc3c2cc1C(=O)N[C@@H](CO)Cc1c[nH]c2ccccc12)OCO4 [Example 57, N—((R)-1-hydroxy-3-(1H-indol-3-yl)propan-2-v)-8,9-(1′,3′-dioxolo)-3-(3-isopropoxy)-6-oxo-6H-benzo[c]chromene-2-carboxamide]
< 100 | COc1cc2c(cc1OC)-c1cc(C(=O)N[C@@H](CO)Cc3c[nH]c4ccccc34)c(OC(C)C)cc1CC2 [Example 58, (R)-2-isopropoxy-N-(1-hydroxy-3-(1H-indol-3-yl)propan-2-yl)-6,7-dimethoxy-9,10-dihydrophenanthrene-3-carboxamide]
